Assay results published in US10059694B2, “2-aminopyrimidine compound and pharmaceutical composition and use thereof” (Shanghai Institute of Materia Medica, Chinese Academy of …, priority 2014, dated 2018).

Assays:
[1] = molecular target: T1, EGFR^wt (Homo sapiens, UniProt P00533); test: kinase inhibitory activity test (ELISA), EGFR^WT; format: biochemical; conditions: ATP 5 μM, 1 hour at 37° C.
T1 construct: purchased Millipore
Method: (§1) The enzyme substrate poly (glutamic acid, tyrosine)4:1 (Sigma) was diluted with potassium-free PBS (10 mM sodium phosphate buffer, 150 mM NaCl, pH 7.2-7.4) to 20 μg/mL, plate coated with 125 μL/well, reacted for 12-16 hours at 37° C. After the liquid in the wells was discarded, the plates were washed three times with 200 μL/well of T-PBS (PBS containing 0.1% Tween-20), and each time for 5 minutes, and then dried for 1-2 hours in an oven at 37° C. 50 μL of ATP solution diluted with reaction buffer (50 mM HEPES pH 7.4, 50 mM MgCl2, 5 mM MnCl2, 0.2 mM Na3VO4, 1 mM DTT) was added into each well and the final concentration was 5 μM. The compounds were diluted with 1% DMSO to suitable concentrations and were added at 10 μL/well. […] The above reaction system was reacted for 1 hour at 37° C. shaking table (100 rpm). Control wells with no enzyme and control wells with DMSO solvent were set in each experiment. After the reaction was completed, the plates were washed three times with T-PBS. The anti-phosphotyrosine primary antibody PY99 (Santa Cruz) was added at 100 μL/well and the antibody was diluted with T-PBS containing BSA 5 mg/mL by 1:1000. The mixture was reacted for 0.5 h at 37° C. shaking table, the plates were washed three times with T-PBS. The secondary antibody which was horseradish peroxidase-labeled goat anti-mouse IgG was added at 100 μL/well (the antibody was diluted with T-PBS containing BSA 5 mg/mL by 1:2000). The mixture was reacted for 0.5 h at 37° C. shaking table, the plates were washed three times with T-PBS. 2 l/mL of OPD coloring solution was added at 100 μL/well (diluted with 0.1 M citric acid-sodium citrate buffer (pH=5.4) containing 0.03% H2O2) and dark reacted for 1 to 10 minutes at 25° C. 2 M H2SO4 was added at 50 μL/well to terminate the reaction. Reading was carried out with an adjustable wavelength microplate enzyme-labeled instrument SPECTRA MAX 190 at 490 nm wavelength.
(§2) The IC50 value was calculated by the four-parameter fitting of the suppression curve.

[2] = molecular target: T2, EGFR^T790M/L858R (Homo sapiens, UniProt P00533, L858R/T790M); test: kinase inhibitory activity test (ELISA), EGFR^T790M/L858R; format: biochemical; conditions: for IC50: ELISA, ATP 5 μM, 1 hour at 37° C.; for kinase inhibitory activity (in words): summary of Table 1
T2 construct: purchased Millipore
T2 sequence (P00533 25-1210 T790M/L858R): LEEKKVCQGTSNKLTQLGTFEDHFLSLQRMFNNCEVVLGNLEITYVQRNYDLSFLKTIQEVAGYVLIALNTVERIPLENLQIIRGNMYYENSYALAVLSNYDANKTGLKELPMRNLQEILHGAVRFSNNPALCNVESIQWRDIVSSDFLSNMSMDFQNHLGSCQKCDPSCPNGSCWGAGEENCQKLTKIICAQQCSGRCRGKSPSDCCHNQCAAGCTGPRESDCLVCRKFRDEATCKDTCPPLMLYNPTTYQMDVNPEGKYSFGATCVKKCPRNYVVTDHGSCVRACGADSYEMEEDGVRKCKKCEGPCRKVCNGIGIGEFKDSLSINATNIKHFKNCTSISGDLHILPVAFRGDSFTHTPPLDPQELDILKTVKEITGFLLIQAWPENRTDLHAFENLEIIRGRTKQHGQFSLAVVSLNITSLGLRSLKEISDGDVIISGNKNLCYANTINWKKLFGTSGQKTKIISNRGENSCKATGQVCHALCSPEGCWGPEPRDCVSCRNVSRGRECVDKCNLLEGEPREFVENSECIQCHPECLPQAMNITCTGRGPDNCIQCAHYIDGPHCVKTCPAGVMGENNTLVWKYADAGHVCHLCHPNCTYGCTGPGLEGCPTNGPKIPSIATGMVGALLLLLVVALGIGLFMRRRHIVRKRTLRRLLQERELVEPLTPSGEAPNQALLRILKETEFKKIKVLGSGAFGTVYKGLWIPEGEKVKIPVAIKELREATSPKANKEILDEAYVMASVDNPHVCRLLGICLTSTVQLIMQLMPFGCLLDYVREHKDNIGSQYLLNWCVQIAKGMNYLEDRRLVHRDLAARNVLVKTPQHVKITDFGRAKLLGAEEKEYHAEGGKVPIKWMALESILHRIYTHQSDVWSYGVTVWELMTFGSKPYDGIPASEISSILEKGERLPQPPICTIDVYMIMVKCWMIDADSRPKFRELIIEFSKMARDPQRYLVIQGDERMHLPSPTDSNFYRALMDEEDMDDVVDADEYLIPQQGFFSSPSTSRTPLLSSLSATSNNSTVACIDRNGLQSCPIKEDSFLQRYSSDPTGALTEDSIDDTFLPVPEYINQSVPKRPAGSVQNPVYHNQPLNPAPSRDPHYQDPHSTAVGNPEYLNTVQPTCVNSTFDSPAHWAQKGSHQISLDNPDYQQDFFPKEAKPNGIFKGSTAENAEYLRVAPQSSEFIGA
Method: as §1, §2

[3] = molecular target: T3, IGF-1R (Homo sapiens, UniProt P08069); test: kinase inhibitory activity test (ELISA), IGF-1R; format: biochemical; conditions: ATP 5 μM, 1 hour at 37° C.
T3 construct: purchased Millipore
T3 sequence (P08069 31-1367): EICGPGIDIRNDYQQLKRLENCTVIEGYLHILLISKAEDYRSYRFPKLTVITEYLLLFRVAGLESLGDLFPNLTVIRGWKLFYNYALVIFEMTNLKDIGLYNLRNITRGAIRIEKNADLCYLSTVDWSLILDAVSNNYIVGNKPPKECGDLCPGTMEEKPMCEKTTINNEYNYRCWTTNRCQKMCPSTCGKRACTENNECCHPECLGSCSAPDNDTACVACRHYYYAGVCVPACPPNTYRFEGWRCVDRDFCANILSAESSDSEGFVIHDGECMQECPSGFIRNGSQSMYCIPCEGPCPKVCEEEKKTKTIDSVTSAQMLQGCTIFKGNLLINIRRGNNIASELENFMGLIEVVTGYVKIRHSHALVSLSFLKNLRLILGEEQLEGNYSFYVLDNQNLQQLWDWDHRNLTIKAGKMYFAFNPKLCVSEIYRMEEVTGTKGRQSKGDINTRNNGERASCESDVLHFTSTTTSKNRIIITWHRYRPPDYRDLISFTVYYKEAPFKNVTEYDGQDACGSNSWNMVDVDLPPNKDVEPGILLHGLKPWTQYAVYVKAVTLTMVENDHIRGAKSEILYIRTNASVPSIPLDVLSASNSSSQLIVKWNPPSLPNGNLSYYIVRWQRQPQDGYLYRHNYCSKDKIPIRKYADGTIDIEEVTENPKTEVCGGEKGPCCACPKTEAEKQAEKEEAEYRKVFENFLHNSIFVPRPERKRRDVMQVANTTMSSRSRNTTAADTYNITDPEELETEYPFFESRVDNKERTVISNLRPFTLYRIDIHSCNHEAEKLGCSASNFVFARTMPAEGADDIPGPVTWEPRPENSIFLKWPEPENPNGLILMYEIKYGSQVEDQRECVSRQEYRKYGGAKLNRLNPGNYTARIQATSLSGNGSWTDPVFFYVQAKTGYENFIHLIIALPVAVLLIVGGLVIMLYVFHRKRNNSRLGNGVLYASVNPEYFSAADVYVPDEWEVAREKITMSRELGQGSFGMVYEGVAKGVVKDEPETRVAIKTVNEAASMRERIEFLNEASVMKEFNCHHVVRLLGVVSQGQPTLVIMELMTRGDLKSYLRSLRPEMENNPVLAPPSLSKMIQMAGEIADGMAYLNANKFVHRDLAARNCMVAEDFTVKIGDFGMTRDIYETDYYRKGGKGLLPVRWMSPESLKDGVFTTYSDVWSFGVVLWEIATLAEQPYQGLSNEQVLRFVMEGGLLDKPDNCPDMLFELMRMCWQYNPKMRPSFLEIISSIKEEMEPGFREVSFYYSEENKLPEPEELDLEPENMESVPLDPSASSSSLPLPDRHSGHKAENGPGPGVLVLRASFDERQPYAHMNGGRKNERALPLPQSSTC
Method: The enzyme substrate poly (glutamic acid, tyrosine)4:1 (Sigma) was diluted with potassium-free PBS (10 mM sodium phosphate buffer, 150 mM NaCl, pH 7.2-7.4) to 20 μg/mL, plate coated with 125 μL/well, reacted for 12-16 hours at 37° C. After the liquid in the wells was discarded, the plates were washed three times with 200 μL/well of T-PBS (PBS containing 0.1% Tween-20), and each time for 5 minutes, and then dried for 1-2 hours in an oven at 37° C. 50 μL of ATP solution diluted with reaction buffer (50 mM HEPES pH 7.4, 50 mM MgCl2, 5 mM MnCl2, 0.2 mM Na3VO4, 1 mM DTT) was added into each well and the final concentration was 5 μM. The compounds were diluted with 1% DMSO to suitable concentrations and were added at 10 μL/well. Then different types of tyrosine kinase proteins (including EGFR^wt, EGFR^T790M/L858R and IGF-1R, purchased from Millipore) diluted with 40 μL of reaction buffer were added. The above reaction system was reacted for 1 hour at 37° C. shaking table (100 rpm). Control wells with no enzyme and control wells with DMSO solvent were set in each experiment. After the reaction was completed, the plates were washed three times with T-PBS. The anti-phosphotyrosine primary antibody PY99 (Santa Cruz) was added at 100 μL/well and the antibody was diluted with T-PBS containing BSA 5 mg/mL by 1:1000. The mixture was reacted for 0.5 h at 37° C. shaking table, the plates were washed three times with T-PBS. The secondary antibody which was horseradish peroxidase-labeled goat anti-mouse IgG was added at 100 μL/well (the antibody was diluted with T-PBS containing BSA 5 mg/mL by 1:2000). The mixture was reacted for 0.5 h at 37° C. shaking table, the plates were washed three times with T-PBS. 2 l/mL of OPD coloring solution was added at 100 μL/well (diluted with 0.1 M citric acid-sodium citrate buffer (pH=5.4) containing 0.03% H2O2) and dark reacted for 1 to 10 minutes at 25° C. 2 M H2SO4 was added at 50 μL/well to terminate the reaction. Reading was carried out with an adjustable wavelength microplate enzyme-labeled instrument SPECTRA MAX 190 at 490 nm wavelength.
as §2

[4] = tested on: human epidermal carcinoma A431 cell line; test: SRB proliferation assay, A431 cells; format: cell-based; conditions: A-431, SRB, 72 h, read-out: IC50 A431
Method: (§3) Cell lines: human epidermal carcinoma A431 cell line and human non-small cell lung cancer NCI-H1975 cell line was purchased from the American Standard Biology Collection Center (ATCC).
(§4) Methods: sulforhodamine B (SRB) method, which was as follows: certain number of different tumor cells in logarithmic growth phase were inoculated on 96-well culture plates. After cultured for 24 h to cell adherence, different concentrations of the test compounds of the invention were added. Each concentration was provided with three wells, and a corresponding concentration of DMSO solvent control and a cell-free zeroing well were set. After the cells were treated with the medicine for 72 h, the culture medium was discarded and 100 μL of 10% pre-cooled trichloroacetic acid solution was added to fix the cells. After placed for 1 h at 4° C., it was washed for 5 times with distilled water and dried naturally. Then 100 μL SRB (4 mg/mL) (Sigma) solution was added and stained for 15 min at room temperature. The staining solution was discarded and washed for 5 times with 1% glacial acetic acid and dried. Finally, 150 μL of 10 mM Tris solution (pH 10.5) was added and the OD value was measured at 515 nm with adjustable wavelength microplate enzyme-labeled instrument (VERSAmax™, Molecular Device Corporation, Sunnyvale, Calif., USA).

[5] = tested on: human non-small cell lung cancer NCI-H1975 cell line; test: SRB proliferation assay, NCI-H1975 cells; format: cell-based; conditions: NCI-H1975, SRB, 72 h, read-out: IC50 NCI-H1975
Method: as §3
as §4, with “USA). […] Based on the inhibitory effect of the 2-aminopyrimidine compounds on the growth of these cells, the half maximal inhibitory concentration (IC50) values were calculated, as shown in Table 2.” for “USA).”

T1 sequence (P00533 25-1210): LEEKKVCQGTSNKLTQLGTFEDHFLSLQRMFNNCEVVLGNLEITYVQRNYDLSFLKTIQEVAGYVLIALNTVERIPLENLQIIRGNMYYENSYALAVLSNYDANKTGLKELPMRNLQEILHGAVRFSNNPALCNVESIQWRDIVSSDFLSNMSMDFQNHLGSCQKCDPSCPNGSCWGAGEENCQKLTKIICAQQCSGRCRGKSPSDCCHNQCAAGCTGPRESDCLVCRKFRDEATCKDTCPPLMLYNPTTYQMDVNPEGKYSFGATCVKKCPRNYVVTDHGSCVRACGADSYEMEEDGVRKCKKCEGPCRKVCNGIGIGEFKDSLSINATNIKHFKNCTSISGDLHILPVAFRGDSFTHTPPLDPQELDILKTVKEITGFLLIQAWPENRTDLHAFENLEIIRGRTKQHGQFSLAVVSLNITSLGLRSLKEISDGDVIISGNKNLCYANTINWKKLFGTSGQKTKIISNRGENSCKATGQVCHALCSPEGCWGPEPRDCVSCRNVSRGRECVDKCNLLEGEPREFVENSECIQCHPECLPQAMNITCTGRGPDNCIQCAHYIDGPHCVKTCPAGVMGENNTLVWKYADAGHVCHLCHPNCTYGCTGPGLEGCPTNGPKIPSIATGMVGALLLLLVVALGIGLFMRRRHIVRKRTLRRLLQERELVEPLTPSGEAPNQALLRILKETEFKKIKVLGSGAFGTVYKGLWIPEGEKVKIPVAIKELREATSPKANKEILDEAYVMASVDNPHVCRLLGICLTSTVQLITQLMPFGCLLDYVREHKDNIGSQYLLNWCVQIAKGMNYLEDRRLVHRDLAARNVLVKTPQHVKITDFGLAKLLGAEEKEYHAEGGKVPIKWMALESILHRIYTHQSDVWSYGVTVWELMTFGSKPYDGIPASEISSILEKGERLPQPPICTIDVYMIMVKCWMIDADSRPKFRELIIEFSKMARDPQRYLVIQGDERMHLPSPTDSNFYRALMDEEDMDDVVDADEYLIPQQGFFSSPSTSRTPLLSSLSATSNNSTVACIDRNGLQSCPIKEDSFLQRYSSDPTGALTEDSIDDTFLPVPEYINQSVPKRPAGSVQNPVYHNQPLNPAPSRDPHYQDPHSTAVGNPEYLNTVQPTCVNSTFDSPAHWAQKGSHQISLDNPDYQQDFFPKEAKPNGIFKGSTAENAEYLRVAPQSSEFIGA

IC50 [1] [nM] | IC50 [2] [nM] | IC50 [3] [nM] | IC50 [4] [nM] | IC50 [5] [nM] | kinase inhibitory activity (in words) [2] | SMILES
> 100 | 21.5 | 19.8 | 1100 | 51 |  | C=CC(=O)Nc1cc(Nc2ncc(Cl)c(Nc3ccc4ccccc4c3)n2)c(OC)cc1N1CCN(C(C)=O)CC1 [CCB120111, N-((5-((5-chloro-4-((naphthalen-2-yl)amino))pyrimidin-2-yl)amino)-2-(4-acetylpiperazine)-4-methoxyphenyl)acrylamide]
40.3 | 1.6 | 28.5 | 2590 | 16 | potent | C=CC(=O)Nc1cc(Nc2ncc(Cl)c(Nc3ccc4ccccc4c3)n2)c(OC)cc1N1CCN(C)CC1 [CCB120115, N-((5-((5-chloro-4-((naphthalen-2-yl)amino))pyrimidin-2-yl)amino)-2-(4-methylpiperazine)-4-methoxyphenyl)acrylamide]
> 100 | 9.4 | 18.7 | > 10000 | 272 |  | C=CC(=O)Nc1cc(Nc2ncc(Cl)c(Nc3ccc4ccccc4c3)n2)c(OC)cc1N1CCOCC1 [CCB120117, N-((5-((5-chloro-4-((naphthalen-2-yl)amino))pyrimidin-2-yl)amino)-2-morpholinyl-4-methoxyphenyl)acrylamide]
31.7 | 0.6 | 18.3 | 260 | 1 to 16 | potent | C=CC(=O)Nc1cc(Nc2ncc(Cl)c(Nc3ccc4ccccc4c3)n2)c(OC)cc1N1CCCN(C)CC1 [CCB120120, N-((5-((5-chloro-4-((naphthalen-2-yl)amino))pyrimidin-2-yl)amino)-2-(4-methylhomopiperazinyl)-4-methoxyphenyl)acrylamide]
> 100 | 1.3 | 13.7 | 324 | 4 |  | C=CC(=O)Nc1cc(Nc2ncc(Cl)c(Nc3ccc4ccccc4c3)n2)c(OC)cc1N1CCC(N(C)C)CC1 [CCB120121, N-((5-((5 chloro-4-((naphthalen-2-yl)amino))pyrimidin-2-yl)amino)-2-(4-dimethylaminopiperidine)-4-methoxyphenyl)acrylamide]
16.8 | 0.3 | 56.4 | 425 | 167 | potent | C=CC(=O)Nc1cc(Nc2ncc(Cl)c(Nc3ccc4ccccc4c3)n2)c(OC)cc1N1CCC(N(C)C)C1 (stereo not drawn) [CCB120137, N-((5-((5-chloro-4-((naphthalen-2-yl)amino))pyrimidin-2-yl)amino)-2-(3-dimethylaminopyrrolidin-1-yl)-4-methoxyphenyl)acrylamide]
4.3 | 0.6 | 426 | 912 | 164 |  | C=CC(=O)Nc1cc(Nc2ncc(Cl)c(Nc3ccc4ccccc4c3)n2)c(OC)cc1N1CC(N(C)C)C1 [CCB120138, N-((5-((5-chloro-4-((naphthalen-2-yl)amino))pyrimidin-2-yl)amino)-2-(3-dimethylaminoazetidin-1-yl)-4-methoxyphenyl)acrylamide]
615 | 43.5 | 37.1 | 857 | 240 |  | COc1ccc(NC(=O)/C=C/CN(C)C)cc1Nc1ncc(Cl)c(Nc2ccc3ncccc3c2)n1 [CCB145213, (E)-N-((3-((5-chloro-4-((quinolin-6-yl)amino))pyrimidin-2-yl)amino)-4-methoxyphenyl)-4-(dimethylamino)-2-butenamide]
848 | 37.6 | 12.5 | 646 | 170 |  | COc1ccc(NC(=O)/C=C/CN(C)C)cc1Nc1ncc(Cl)c(Nc2cnc3ccccc3c2)n1 [CCB145221, (E)-N-((3-((5-chloro-4-((quinolin-3-yl)amino))pyrimidin-2-yl)amino)-4-methoxyphenyl)-4-(dimethylamino)-2-butenamide]
295 | 30.8 | 38 | 615 | 289 |  | COc1ccc(NC(=O)/C=C/CN(C)C)cc1Nc1ncc(Cl)c(Nc2ccc3[nH]ccc3c2)n1 [CCB145231, (E)-N-((3-((5-chloro-4-((indol-5-yl)amino))pyrimidin-2-yl)amino)-4-methoxyphenyl)-4-(dimethylamino)-2-butenamide]
54.1 | 56.6 | 98.5 | 1040 | 885 |  | COc1ccc(NC(=O)/C=C/CN(C)C)cc1Nc1nccc(Nc2ccc3ccccc3c2)n1 [CCB145242, (E)-N-((3-(4-((naphthalen-2-yl)amino)pyrimidin-2-yl)amino)-4-methoxyphenyl)-4-(dimethylamino)-2-butenamide]
> 10000 | 293 | 297 | 17800 | 2040 |  | COc1ccc(NC(=O)/C=C/CN(C)C)cc1Nc1ncc(Cl)c(Oc2ccc3ccccc3c2)n1 [CCB145260, (E)-N-((3-((5-chloro-4-((naphthalen-2-yl)oxy))pyrimidin-2-yl)amino)-4-methoxyphenyl)-4-(dimethylamino)-2-butenamide]
